Results reported in article PMC12817919 (Journal of Virology, 2025).
Read-outs that look alike come from different tables or passages of the source.

Key:
wild-type RSV = assay: microbe, parasite or virus in culture; format: cell-based
RSV K394R = format: cell-based, respiratory syncytial virus (RSV); conditions: for Fold resistance (RSV K394R): fold change in the EC50 relative to that of wild-type RSV
RSV K399N = format: cell-based, respiratory syncytial virus (RSV); conditions: for Fold resistance (RSV K399N): fold change in the EC50 relative to that of wild-type RSV
RSV T400A = format: cell-based, respiratory syncytial virus (RSV); conditions: for Fold resistance (RSV T400A): fold change in the EC50 relative to that of wild-type RSV
RSV A2 P18 (Control) = assay: Antiviral activity against passaged virus in HEp-2 cells (FFA); format: cell-based, respiratory syncytial virus (RSV); conditions: human respiratory syncytial virus, HEp-2, MOI 0.2, FFA
[1] = test system: Lonafarnib escape virus populations P18 (RSV A2); assay: as above; format: cell-based, respiratory syncytial virus (RSV); conditions: human respiratory syncytial virus, HEp-2, MOI 0.2, FFA
RSV ON1 P18 (Control) = assay: as above; format: cell-based, respiratory syncytial virus (RSV); conditions: human respiratory syncytial virus, HEp-2, MOI 0.2, FFA
[2] = test system: Lonafarnib escape virus populations P18 (RSV ON1); assay: as above; format: cell-based, respiratory syncytial virus (RSV); conditions: human respiratory syncytial virus, HEp-2, MOI 0.2, FFA
RSV V127G = format: cell-based, respiratory syncytial virus (RSV)
RSV L141F = format: cell-based, respiratory syncytial virus (RSV)
RSV T400I = format: cell-based, respiratory syncytial virus (RSV)
RSV F488L = format: cell-based, respiratory syncytial virus (RSV)
RSV A2 [3] = assay: microbe, parasite or virus in culture; format: cell-based; conditions: human respiratory syncytial virus; HEp-2 (RSV A2, MOI = 0.2), 72 h, FFA
RSV ON1 = assay: microbe, parasite or virus in culture; format: cell-based; conditions: human respiratory syncytial virus; HEp-2 (RSV ON1, MOI = 0.2), 72 h, FFA
in vitro = format: cell-based; conditions: human; HEp-2 cells, 72 h, CCK8
Procedure: HEp-2 cells (1.3 × 10^4) were seeded in 96-well plates for 20 h. The indicated compounds in a 3-fold dilution series were added to the cells, and three wells were performed in parallel. After 72 h, the cells were incubated with DMEM containing 10% FBS and CCK8 reagent (Beyotime Biotechnology, cat#C0038) for 30 min at 37°C. The absorbance at 450 nm and 600 nm was read using the PerkinElmer EnSight reader.

[4] = test system: DS-Cav1 mutants (T335I, K394R, S398L, K399N, T400A, and D401E); format: binding; conditions: D401E compared with DS-Cav1
RSV F protein mutants = assay: GFP-split cell-cell fusion assay mediated by transfected F or F mutants; format: cell-based, respiratory syncytial virus (RSV); conditions: 5, 1, 0.5 µM, 24 h, HEK293T GFP-split cells
Procedure: (§1) Cell–cell fusion assays were performed using a split-GFP system (GFP1-10 and GFP11) ([76]). Briefly, HEK293T cells stably expressing GFP1-10 were transfected with 1,000 ng of plasmids encoding either wild-type F or F mutants containing various amino acid substitutions. Alternatively, the cells were infected with RSV and treated with 0.1% DMSO or the indicated compounds at concentrations of 5, 1, and 0.5 µM. Then, the transfected or infected cells were co-cultured with HEK293T cells stably expressing GFP11 at a 1:1 ratio (8 × 10^4 cells/well) for 24 h in a 96-well plate. Images were acquired per well on an Operetta CLS High-Content Screening System (PerkinElmer).

RSV = conditions: oral administration; cited from earlier work
RSV F protein [5] = target: T1, RSV F protein (Human respiratory syncytial virus A, UniProt P03420); format: cell-based; parameters: expressed in transfected cells; host or cells: HEK293T; conditions: HEK293T cells expressing RSV F, western blot
Target sequence in this assay (P03420 137-574): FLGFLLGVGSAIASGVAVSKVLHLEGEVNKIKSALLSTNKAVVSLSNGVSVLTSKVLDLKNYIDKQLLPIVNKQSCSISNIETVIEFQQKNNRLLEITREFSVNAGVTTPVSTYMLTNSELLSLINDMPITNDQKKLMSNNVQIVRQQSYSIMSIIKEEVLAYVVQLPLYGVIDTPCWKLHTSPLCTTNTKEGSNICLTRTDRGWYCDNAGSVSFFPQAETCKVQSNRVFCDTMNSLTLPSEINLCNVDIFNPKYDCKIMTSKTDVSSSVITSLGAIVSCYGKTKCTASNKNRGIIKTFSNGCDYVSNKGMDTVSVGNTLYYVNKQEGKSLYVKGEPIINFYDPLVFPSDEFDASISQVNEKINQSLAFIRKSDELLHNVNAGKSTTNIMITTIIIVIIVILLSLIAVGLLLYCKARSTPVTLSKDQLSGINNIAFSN
Target sequence in this assay (P03420 26-109): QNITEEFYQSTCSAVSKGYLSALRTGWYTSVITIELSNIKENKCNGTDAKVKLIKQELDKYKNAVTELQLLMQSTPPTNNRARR

RSV A2 [6] = assay: GFP-split cell-cell fusion assay mediated by RSV infection; format: cell-based, respiratory syncytial virus (RSV); conditions: RSV A2 MOI 1; 5, 1, 0.5 µM, 24 h, HEK293T GFP-split cells
Procedure: as §1

RSV ON1-GFP [7] = assay: Antiviral efficacy in primary human bronchial epithelial cells (GFP intensity); format: cell-based, respiratory syncytial virus (RSV); conditions: HBECs, MOI 2, 1 µM, 72 h
Procedure: The inhibitory effects of compounds on RSV ON1-GFP were evaluated in HBEC. […] At 72 h post-infection, the infected cells were visualized using an EVOS M5000 Cell Imaging System (Thermo Fisher Scientific).

RSV ON1-GFP [8] = assay: Antiviral drug assay using lung airway organoids; conditions: 96 h, MOI 1
Text: In brief, HBECs were initially cultured in PneumaCult-Ex Plus Medium ([sequence] Technologies, cat#05040), then seeded at 2 × 10⁵ cells/well into anti-adherence rinsing solution ([sequence] Technologies, cat#07010)-treated AggreWell400 24-well plates ([sequence] Technologies, cat#34415). They were maintained in PneumaCult Apical-Out Airway Organoid Medium ([sequence] Technologies, cat#100-0620) for 6 days. Subsequently, the cells were transferred to similarly treated flat-bottom 24-well plates and cultured in the same medium for an additional 9 days.
The airway organoids were infected with RSV ON1-GFP at an MOI of 1 for 4 h. […] At 96 h post-infection, cell-free medium was harvested, and a TCID50 assay was performed to determine the viral titer. The organoids were fixed in parallel in 4% PFA, permeabilized with 0.5% Triton X-100 (1 h), blocked with 5% BSA (Macklin, cat#B824162; 2 h), and incubated overnight at 4°C with primary antibodies: Goat anti-Human p63/TP73L polyclonal antibody (R&D Systems, cat#AF1916), Rabbit anti-Human Mucin 5AC polyclonal antibody (Abways, cat#CY6826), and Mouse anti-acetylated tubulin monoclonal antibody (Sigma-Aldrich, cat#T7451). […] The GFP fluorescence intensity was quantified using ImageJ analysis software (RRID: SCR_003070; National Institutes of Health, NIH).

RSV F protein [9] = target: T1, RSV F protein; format: cell-based; parameters: HEp-2 cells were infected with RSV (MOI = 10); endogenous in cells; host or cells: HEp-2 cells infected with RSV (viral protein made in the infected cell); conditions: HEp-2, RSV MOI 10, 1 µM, 18 h
Target sequence in this assay (P03420 137-574): as the sequence (P03420 137-574) above
Target sequence in this assay (Q96SW2 whole entry, further chain, the tested form may be a part): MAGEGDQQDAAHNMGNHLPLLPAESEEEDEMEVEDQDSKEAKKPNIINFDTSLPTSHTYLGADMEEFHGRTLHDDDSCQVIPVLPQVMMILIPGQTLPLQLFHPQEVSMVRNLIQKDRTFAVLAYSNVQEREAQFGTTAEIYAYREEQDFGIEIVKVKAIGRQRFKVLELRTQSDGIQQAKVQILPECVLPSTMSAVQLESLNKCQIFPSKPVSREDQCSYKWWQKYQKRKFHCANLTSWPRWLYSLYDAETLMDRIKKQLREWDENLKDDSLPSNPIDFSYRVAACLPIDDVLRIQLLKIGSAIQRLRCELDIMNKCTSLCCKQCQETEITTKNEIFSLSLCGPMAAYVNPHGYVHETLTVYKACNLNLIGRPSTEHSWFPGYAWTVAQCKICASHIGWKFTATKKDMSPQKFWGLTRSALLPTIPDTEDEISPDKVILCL
Target sequence in this assay (P03420 26-109): as the sequence (P03420 26-109) above

[10] = human respiratory syncytial virus, wild-type RSV, Table 2 cross-resistance experiment, HEp-2, read-out: EC50 RSV
[11] = Table 2 cross-resistance experiment, HEp-2, read-out: EC50 RSV K394R
[12] = Table 2 cross-resistance experiment, HEp-2, read-out: EC50 RSV K399N
[13] = Table 2 cross-resistance experiment, HEp-2, read-out: EC50 RSV T400A

## Cc1ccc2nc(N3CCS(=O)(=O)c4ccccc4C3)nc(NCC3(N)COC3)c2c1 [AK0529]
wild-type RSV; [10]
  EC50: 1.3 nM
RSV K394R; [11]
  EC50: 6550 nM
RSV K394R
  Fold resistance (RSV K394R): 4,983.3
RSV K399N; [12]
  EC50: 2250 nM
RSV K399N
  Fold resistance (RSV K399N): 1,713.3
RSV T400A; [13]
  EC50: 9850 nM
RSV T400A
  Fold resistance (RSV T400A): 7,491.3

## Cc1cn2nc([C@@H]3CCCCN3C(=O)c3cc(Cl)ccc3NS(C)(=O)=O)cc2nc1N1CC[C@H](N)C1 [GS-5806]
wild-type RSV; [10]
  EC50: 0.1 nM
RSV K394R; [11]
  EC50: 192 nM
RSV K394R
  Fold resistance (RSV K394R): 1,673.9
RSV K399N; [12]
  EC50: 4.4 nM
RSV K399N
  Fold resistance (RSV K399N): 38.3
RSV T400A; [13]
  EC50: 28.8 nM
RSV T400A
  Fold resistance (RSV T400A): 250.1

## CS(=O)(=O)CCCn1c(Cn2c(=O)n(CC(F)(F)F)c3ccncc32)cc2cc(Cl)ccc21 [JNJ-53718678]
wild-type RSV; wild-type RSV, Table 2 cross-resistance experiment, HEp-2, read-out: EC50 RSV
  EC50: 0.7 nM
RSV K394R; [11]
  EC50: 10100 nM
RSV K394R
  Fold resistance (RSV K394R): 15,582.2
RSV K399N; [12]
  EC50: 248 nM
RSV K399N
  Fold resistance (RSV K399N): 382.2
RSV T400A; [13]
  EC50: 11600 nM
RSV T400A
  Fold resistance (RSV T400A): 17,920.3

## NC(=O)N1CCC(CC(=O)N2CCC([C@H]3c4ncc(Br)cc4CCc4cc(Cl)cc(Br)c43)CC2)CC1 [Lonafarnib]
RSV A2 P18 (Control); HEp-2, Lineage 1
  EC50: 40 nM
RSV A2 P18 (Control); HEp-2, Lineage 2
  EC50: 50 nM
RSV A2 P18 (Control); HEp-2, Lineage 3
  EC50: 40 nM
[1]; HEp-2, Lineage 1
  EC50: 800 nM
[1]; HEp-2, Lineage 2
  EC50: 1080 nM
[1]; HEp-2, Lineage 3
  EC50: 790 nM
RSV ON1 P18 (Control); HEp-2, Lineage 1
  EC50: 90 nM
RSV ON1 P18 (Control); HEp-2, Lineage 2
  EC50: 130 nM
RSV ON1 P18 (Control); HEp-2, Lineage 3
  EC50: 130 nM
[2]; HEp-2, Lineage 1
  EC50: 3360 nM
[2]; HEp-2, Lineage 2
  EC50: 4100 nM
[2]; HEp-2, Lineage 3
  EC50: 3500 nM
wild-type RSV; human respiratory syncytial virus, 72 h, Wild-type, HEp-2, MOI 0.2, 3 days, FFA, read-out: EC50
  EC50: 46 ± 10 nM
wild-type RSV; human respiratory syncytial virus, HEp-2, Wild-type, EC90 = 9^1/HillSlope*EC50
  EC90: 190 ± 120 nM
wild-type RSV; [10]
  EC50: 45.6 nM
RSV V127G; EC90 = 9^1/HillSlope*EC50
  EC90: 177 ± 38 nM
RSV V127G; HEp-2, MOI 0.2, 3 days, FFA
  EC50: 44 ± 5 nM
RSV L141F; EC90 = 9^1/HillSlope*EC50
  EC90: 631 ± 125 nM
RSV L141F; HEp-2, MOI 0.2, 3 days, FFA
  EC50: 79 ± 19 nM
RSV K394R; K394R, EC90 = 9^1/HillSlope*EC50
  EC90: 15000 ± 7330 nM
RSV K394R; K394R, HEp-2, MOI 0.2, 3 days, FFA, read-out: EC50
  EC50: 5130 ± 1690 nM
RSV K394R; [11]
  EC50: 3840 nM
RSV K399N; K399N, EC90 = 9^1/HillSlope*EC50
  EC90: 1550 ± 277 nM
RSV K399N; K399N, HEp-2, MOI 0.2, 3 days, FFA, read-out: EC50
  EC50: 450 ± 32 nM
RSV K399N; [12]
  EC50: 406 nM
RSV T400A; T400A, EC90 = 9^1/HillSlope*EC50
  EC90: 4640 ± 440 nM
RSV T400A; T400A, HEp-2, MOI 0.2, 3 days, FFA, read-out: EC50
  EC50: 1520 ± 127 nM
RSV T400A; [13]
  EC50: 1120 nM
RSV T400I; EC90 = 9^1/HillSlope*EC50
  EC90: 4610 ± 663 nM
RSV T400I; HEp-2, MOI 0.2, 3 days, FFA
  EC50: 1510 ± 184 nM
RSV F488L; EC90 = 9^1/HillSlope*EC50
  EC90: 1900 ± 160 nM
RSV F488L; HEp-2, MOI 0.2, 3 days, FFA
  EC50: 700 ± 69 nM
RSV A2 [3]
  EC50: 40 ± 2 nM
RSV ON1
  EC50: 60 ± 20 nM
In vitro
  CC50: 17900 ± 1130 nM
[4]
  binding affinity for lonafarnib (SPR): significantly decreased the binding affinity
RSV F protein mutants; T335I, S398L, K394R, K399I/N, T400A/I, and D401E mutants
  inhibition of mutant-induced cell-cell fusion activity: did not or only slightly inhibit
RSV F protein mutants; V76A, K80N, L119I, and D392G/N mutants
  inhibition of mutant-induced cell-cell fusion activity: significantly inhibited
RSV
  RSV load in murine infection model: dose-dependent reduction in the RSV load
RSV F protein [5]
  effect on F protein levels: did not affect F protein levels

## NCc1ccc2c(c1)nc(CN1C(=O)C3(CC3)c3ccc(F)cc31)n2CCCC(F)(F)F [RV521]
wild-type RSV; [10]
  EC50: 0.1 nM
RSV K394R; [11]
  EC50: 179 nM
RSV K394R
  Fold resistance (RSV K394R): 2,462.8
RSV K399N; [12]
  EC50: 0.4 nM
RSV K399N
  Fold resistance (RSV K399N): 5.4
RSV T400A; [13]
  EC50: 12.6 nM
RSV T400A
  Fold resistance (RSV T400A): 173.6

## O=C1CCC(N2C(=O)c3cccc(NCCOCCOCCOCCC(=O)N4CCC(CC(=O)N5CCC([C@H]6c7ncc(Br)cc7CCc7cc(Cl)cc(Br)c76)CC5)CC4)c3C2=O)C(=O)N1 (stereo partly drawn) [compound 0179841, 4-((2-(2-(2-(3-(4-(2-(4-((R)−3,10-dibromo-8-chloro-6,11-dihydro-5H-benzo[5,6]cyclohepta[1,2-b]pyridin-11-yl)piperidin-1-yl)−2-oxoethyl)piperidin-1-yl)−3-oxopropoxy)ethoxy)ethoxy)ethyl)amino)−2-(2,6-dioxopiperidin-3-yl)isoindoline-1,3-dione]
RSV A2 [3]
  EC50: 450 ± 40 nM
RSV ON1
  EC50: 460 ± 30 nM
In vitro
  CC50: > 100000 nM
RSV A2 [6]
  inhibition of RSV-induced cell-cell fusion activity: significantly inhibited
RSV ON1-GFP [7]
  RSV infection level (GFP intensity): significant decrease in the RSV infection level
RSV ON1-GFP [8]; 5 µM, TCID50 of supernatant
  reduction of viral titers compared with the DMSO control: more than 100 fold
RSV ON1-GFP [8]; 5, 1, 0.5 µM
  viral loads and protein expression in lung airway organoids: significantly reduced viral loads and protein expression in a dose-dependent manner
RSV F protein [5]
  effect on F protein levels: time- and concentration-dependent
RSV F protein [9]
  degradation of the F protein during RSV infection: induced significant degradation of the F protein
